Data taken from US10421755B2, “Salts of aza-bicyclic di-aryl ethers and methods to make them or their precursors” (Novartis AG, priority 2011, dated 2019).
≈ marks a conversion by molar mass, not a printed value.

Experiments:
[1] = Hygroscopicity (moisture gain at relative humidity); type: physicochemical; set-up: Hygroscopy @ 85% RH: unit not given here
human α7-nAChR = target: T1, human α7-nAChR (Homo sapiens, UniProt P36544); experiment: functional assay (FLIPR, Fluo-4 calcium) using GH3 cells that recombinantly expressed human α7-nAChR; type: cell-based
T1 construct: expressed in transfected cells; host or cells: GH3 cells (rat pituitary line)
T1 sequence (P36544 23-502): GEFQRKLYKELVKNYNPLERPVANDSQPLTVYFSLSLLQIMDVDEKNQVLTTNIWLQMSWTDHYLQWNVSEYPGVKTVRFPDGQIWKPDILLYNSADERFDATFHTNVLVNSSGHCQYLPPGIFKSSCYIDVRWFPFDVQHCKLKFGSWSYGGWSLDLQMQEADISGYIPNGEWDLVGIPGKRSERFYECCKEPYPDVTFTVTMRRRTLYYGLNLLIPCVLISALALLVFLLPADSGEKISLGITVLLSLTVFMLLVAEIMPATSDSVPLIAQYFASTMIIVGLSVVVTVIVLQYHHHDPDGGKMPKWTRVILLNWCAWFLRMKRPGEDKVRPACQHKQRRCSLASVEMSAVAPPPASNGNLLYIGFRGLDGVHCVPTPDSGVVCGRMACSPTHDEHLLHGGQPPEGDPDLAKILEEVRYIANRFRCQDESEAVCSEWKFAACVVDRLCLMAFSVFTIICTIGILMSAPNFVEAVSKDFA
Protocol: Assay: To assess α7-nAChR activity, a functional assay was employed using GH3 cells that recombinantly expressed human α7-nAChR. 40000 cells per well were seeded 48 h prior to the experiment on black 96-well plates (Costar) and incubated at 37° C. in a humidified atmosphere (5% CO2/95% air). On the day of the experiment, medium was removed by flicking the plates and replaced with 0.1 ml growth medium containing 0.002 mM Fluo-4, (Molecular Probes) in the presence of 2.5 mM probenecid (Sigma). The cells were incubated at 37° C. in a humidified atmosphere (5% CO2/95% air) for 1 h. Plates were flicked to remove excess of Fluo-4, washed twice with Hepes-buffered salt solution (HBSS, in mM: NaCl 130, KCl 5.4, CaCl2 2, MgSO4 0.8, NaH2PO4 0.9, glucose 25, Hepes 20, pH 7.4; HBS) and refilled with 0.1 ml of HBS containing antagonist when appropriate. The incubation in the presence of the antagonist lasted 3-5 minutes. Plates were placed in the cell plate stage of a FLIPR device (fluorimetric imaging plate reader, Molecular Devices, Sunnyvale, Calif., USA). After recording of the baseline (laser: excitation 488 nm at 1 W, CCD camera opening of 0.4 seconds) the agonists (0.05 ml) were added to the cell plate using the FLIPR 96-tip pipettor while simultaneously recording the fluorescence. […]

[2] = Pharmacokinetics in rats after oral administration; type: in vivo, Wistar rats; settings: male, Wistar, rat, in vivo, po, 10 mg/kg; for Tmax: Tmax (h)
Protocol: If a salt forming agent is used (e.g. fumarate), a corresponding higher amount of the salt will be used to achieve the intended dosing.
Both compounds were dissolved in Klucel™ (0.5% in water) and were orally administered by gavage (5 ml/kg) to conscious rats (n=8, cross-over design).
K3-EDTA blood (˜0.2 ml) was collected by puncture of a sublingual vein under light isoflurane anesthesia at the following time points: 0.25, 0.5, 1, 2, 3, 4, 6, 8, 24 h post dose. Immediately after sampling, blood samples were put on ice and were processed to plasma by centrifugation at 4° C. within 15 min after sampling (1000 g, 10 min, 4° C.) to obtain ˜100 μl plasma/sample. All plasma samples were stored at −80° C. until analysis. Since the PK study was performed in a cross-over design, a recovery period of approximately 2 weeks took place before the next treatment/blood sampling was performed.
The determination of compounds in plasma was done by LC-MS/MS using electrospray ionization.

[3] = target: T2, human neuronal nAChR α4β2 (Homo sapiens, UniProt P17787+P43681); experiment: similar functional assay using a human epithelial cell line stably expressing the human α4β2 subtype; type: cell-based
T2 construct: expressed in transfected cells
T2 sequence (P43681 29-627 limits assumed): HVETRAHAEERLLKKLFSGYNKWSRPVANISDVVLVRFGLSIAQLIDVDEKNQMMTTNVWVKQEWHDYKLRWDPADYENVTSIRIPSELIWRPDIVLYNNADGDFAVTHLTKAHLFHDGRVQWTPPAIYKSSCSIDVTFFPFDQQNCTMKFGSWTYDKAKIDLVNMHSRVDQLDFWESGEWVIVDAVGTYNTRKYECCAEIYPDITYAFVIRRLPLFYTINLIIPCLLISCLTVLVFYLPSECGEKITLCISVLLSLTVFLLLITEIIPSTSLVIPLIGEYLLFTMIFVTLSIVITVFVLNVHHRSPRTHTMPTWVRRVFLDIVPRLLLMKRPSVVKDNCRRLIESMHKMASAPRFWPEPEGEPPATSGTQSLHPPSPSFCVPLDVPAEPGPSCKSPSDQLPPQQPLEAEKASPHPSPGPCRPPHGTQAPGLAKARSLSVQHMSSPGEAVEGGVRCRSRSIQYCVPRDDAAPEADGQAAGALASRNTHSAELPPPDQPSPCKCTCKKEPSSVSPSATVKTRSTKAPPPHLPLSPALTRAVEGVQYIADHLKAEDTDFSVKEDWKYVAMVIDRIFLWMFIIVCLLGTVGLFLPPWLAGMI
T2 sequence (P17787 26-502): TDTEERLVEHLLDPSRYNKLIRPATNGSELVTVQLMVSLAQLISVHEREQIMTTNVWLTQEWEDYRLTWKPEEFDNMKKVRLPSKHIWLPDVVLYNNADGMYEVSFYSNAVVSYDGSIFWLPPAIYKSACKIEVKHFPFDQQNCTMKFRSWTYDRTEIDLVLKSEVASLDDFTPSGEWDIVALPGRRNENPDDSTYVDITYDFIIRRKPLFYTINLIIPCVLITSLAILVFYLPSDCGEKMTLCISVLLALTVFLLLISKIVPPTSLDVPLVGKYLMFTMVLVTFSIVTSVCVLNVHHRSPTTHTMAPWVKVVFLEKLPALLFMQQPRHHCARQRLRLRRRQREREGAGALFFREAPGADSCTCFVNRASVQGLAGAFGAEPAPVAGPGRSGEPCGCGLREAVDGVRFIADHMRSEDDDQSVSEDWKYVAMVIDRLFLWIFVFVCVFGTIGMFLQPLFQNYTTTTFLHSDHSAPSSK
Protocol: To assess the activity of the compound of the invention on the human neuronal nAChR α4β2, a similar functional assay is carried out using a human epithelial cell line stably expressing the human α4β2 subtype (Michelmore et al., Naunyn-Schmiedeberg's Arch. Pharmacol. (2002) 366, 235).

[4] = Known multiple solid forms; type: physicochemical; settings: comparison table, Example 7
[5] = Oral bioavailability and brain penetration in mice; type: in vivo
Protocol: Assay: Compounds were orally (30 μmol/kg) administered. Male mice (30-35 g, OF1/ICstrain) were sacrificed at indicated time points after oral administration. Trunk-blood was collected in EDTA-containing tubes and the brain was removed and immediately frozen on dry ice. To 100 μl plasma 10 μl internal standard (1.0 μmol of a compound with solubility and ionization properties similar to test compounds) was added and extracted three times with 500 μl dichloromethane. The combined extracts were then dried under a stream of nitrogen and re-dissolved in 100 μl acetonitrile/water (70% acetonitrile). Brains were weighed and homogenized in water (1:5 w/v). Two 100 μl aliquots of each homogenate+10 μl of internal standard (same standard as used for the plasma samples) were extracted three times with 500 μl dichloromethane and further processed as the plasma samples. Samples were separated on Beckmann high-performance liquid chromatography equipment system with an autosampler (Gilson 233XL). A 10 min linear gradient (10-70%) of acetonitrile containing 0.5% (v/v) formic acid was used to elute the compounds from Nucleosil CC-125/2 C18 reversed phase (Machery&Nagel) column.
The limit of detection (LOD), defined as the lowest concentration of the extracted standard sample with a signal to noise ratio of ˜3.

[6] = Decomposition temperature; type: physicochemical; set-up: unit not given here; settings: comparison table, Example 7
Aqueous solubility = type: physicochemical

## Cc1ccc(-c2ccc(O[C@H]3CN4CCC3CC4)cn2)cc1 [Compound A, (R)-3-(6-(4-methylphenyl)-pyridin-3-yloxy)-1-aza-bicyclo[2.2.2]octane]
[1]
  hygroscopicity (in words): hygroscopic
[1]; at 93% relative humidity (RH)
  moisture gain: 2%
[1]; comparison table, Example 7
  Hygroscopy @ 85% RH: ~2
Human α7-nAChR; Emax relative to epibatidine response
  α7-nAChR activity Efficacy compared to epibatidine (100%): 75%
Human α7-nAChR; GH3 cells, human α7-nAChR, read-out: α7-nAChR activity Potency EC50
  EC50: 0.035 µM
[2]
  Cmax/Dose (ng/mL)/(mg/kg), Mean All: 11.3 (ng/mL)/(mg/kg)
  Tmax: 15 min
[2]; AUClast (h · ng/mL), Mean All
  AUC(0-t): 200 ± 62 ng·h/mL
[2]; Cmax (ng/mL), Mean All
  Cmax: 112 ± 40 ng/mL
[2]; all rats
  Tmax: 15 to 30 min
[2]; T½ (h), Mean All
  half-life: 310 min
[3]
  EC50: > 100 µM
  IC50: 5.6 µM
[4]
  Known Multiple forms: Yes
[5]; 30 μmol/kg p.o., 0.25 hour
  Brain (pmoles/g ± SD): 4631 ± 1717 pmol/g
[5]; 30 μmol/kg p.o., 0.5 hour
  Brain (pmoles/g ± SD): 11430 ± 3441 pmol/g
[5]; 30 μmol/kg p.o., 1 hour
  Brain (pmoles/g ± SD): 14948 ± 4716 pmol/g
[5]; 30 μmol/kg p.o., 4 hour
  Brain (pmoles/g ± SD): 1272 ± 715 pmol/g
[5]; 30 μmol/kg p.o., 8 hour
  Brain (pmoles/g ± SD): 58 ± 27 pmol/g
[5]; acute oral dose of 30 μmol/kg
  time for which brain concentration is beyond (or at least equal) to the EC50 at the α7-nAChR: at least 4 hours
[5]; male, OF1/IC, mouse, plasma, po, 30 μmol/kg p.o., 0.25 hour, read-out: Plasma (pmoles/ml ± SD)
  concentration at 0.25 h: 573 ± 234 pmol/mL
[5]; male, OF1/IC, mouse, plasma, po, 30 μmol/kg p.o., 0.5 hour, read-out: Plasma (pmoles/ml ± SD)
  concentration at 0.5 h: 559 ± 143 pmol/mL
[5]; male, OF1/IC, mouse, plasma, po, 30 μmol/kg p.o., 1 hour, read-out: Plasma (pmoles/ml ± SD)
  concentration at 1 h: 322 ± 135 pmol/mL
[5]; male, OF1/IC, mouse, plasma, po, 30 μmol/kg p.o., 4 hour, read-out: Plasma (pmoles/ml ± SD)
  concentration at 4 h: 20 ± 16 pmol/mL
[5]; male, OF1/IC, mouse, plasma, po, 30 μmol/kg p.o., 8 hour, read-out: Plasma (pmoles/ml ± SD)
  concentration at 8 h: 3.4 ± 0.8 pmol/mL
[6]
  Decomposition temperature: 224
Aqueous solubility
  aqueous solubility (in words): low
Aqueous solubility; aqueous medium, comparison table, Example 7
  solubility: 50 µg/mL (≈ 170 µM)
